# Measured values: ChEMBL document CHEMBL5390201, “The Natural Alkaloid (-)-N-Hydroxyapiosporamide Suppresses Colorectal Tumor Progression as an NF-κB Pathway Inhibitor by Targeting the TAK1-TRAF6 Complex” (J Nat Prod, 2023)
# Activity calls are given as the source filed them. The rule behind the calls is not given here.
# Tests used:
# [1] = target: Nuclear factor NF-kappa-B complex (Homo sapiens) (UniProt Q00653+P19838+Q04206); assay: Inhibition of TNF-alpha induced NFkappaB activation in human HCT-116 cells assessed as inhibition of p65 nuclear translocation at 10 uM pretreated for 6 hrs followed by TNFalpha stimulation for 15 mins by immunohistochemical analysis; format: cell-based; details: time 6.25 hrs
# Nuclear factor NF-kappa-B complex (Homo sapiens), sequence (P19838 whole entry, looked up): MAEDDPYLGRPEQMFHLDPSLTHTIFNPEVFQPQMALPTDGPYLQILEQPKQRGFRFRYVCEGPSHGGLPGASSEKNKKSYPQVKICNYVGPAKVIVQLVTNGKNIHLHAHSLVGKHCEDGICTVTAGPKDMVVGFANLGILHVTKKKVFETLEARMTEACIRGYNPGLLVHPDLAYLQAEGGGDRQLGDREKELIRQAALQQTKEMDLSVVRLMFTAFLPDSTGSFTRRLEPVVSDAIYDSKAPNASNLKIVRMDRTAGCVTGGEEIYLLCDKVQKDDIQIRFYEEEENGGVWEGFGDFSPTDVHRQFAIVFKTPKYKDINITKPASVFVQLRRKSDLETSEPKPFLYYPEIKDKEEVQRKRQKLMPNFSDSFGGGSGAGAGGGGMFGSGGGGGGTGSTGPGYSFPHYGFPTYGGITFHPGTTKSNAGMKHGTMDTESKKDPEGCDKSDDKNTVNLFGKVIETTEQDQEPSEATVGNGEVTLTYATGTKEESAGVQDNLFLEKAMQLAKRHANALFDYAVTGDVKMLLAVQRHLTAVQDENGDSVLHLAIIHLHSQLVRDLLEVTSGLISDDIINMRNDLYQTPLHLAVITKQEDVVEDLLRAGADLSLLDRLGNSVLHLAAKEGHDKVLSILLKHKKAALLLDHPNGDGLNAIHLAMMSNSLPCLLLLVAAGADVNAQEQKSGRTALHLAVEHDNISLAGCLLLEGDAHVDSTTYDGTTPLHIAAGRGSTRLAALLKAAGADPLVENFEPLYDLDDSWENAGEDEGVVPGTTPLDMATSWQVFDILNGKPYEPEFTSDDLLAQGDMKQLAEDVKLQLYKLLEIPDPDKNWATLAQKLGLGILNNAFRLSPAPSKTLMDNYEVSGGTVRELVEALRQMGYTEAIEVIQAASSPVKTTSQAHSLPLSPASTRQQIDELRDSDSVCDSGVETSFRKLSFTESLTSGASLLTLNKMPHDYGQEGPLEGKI
# Nuclear factor NF-kappa-B complex (Homo sapiens), sequence (Q00653 whole entry, looked up): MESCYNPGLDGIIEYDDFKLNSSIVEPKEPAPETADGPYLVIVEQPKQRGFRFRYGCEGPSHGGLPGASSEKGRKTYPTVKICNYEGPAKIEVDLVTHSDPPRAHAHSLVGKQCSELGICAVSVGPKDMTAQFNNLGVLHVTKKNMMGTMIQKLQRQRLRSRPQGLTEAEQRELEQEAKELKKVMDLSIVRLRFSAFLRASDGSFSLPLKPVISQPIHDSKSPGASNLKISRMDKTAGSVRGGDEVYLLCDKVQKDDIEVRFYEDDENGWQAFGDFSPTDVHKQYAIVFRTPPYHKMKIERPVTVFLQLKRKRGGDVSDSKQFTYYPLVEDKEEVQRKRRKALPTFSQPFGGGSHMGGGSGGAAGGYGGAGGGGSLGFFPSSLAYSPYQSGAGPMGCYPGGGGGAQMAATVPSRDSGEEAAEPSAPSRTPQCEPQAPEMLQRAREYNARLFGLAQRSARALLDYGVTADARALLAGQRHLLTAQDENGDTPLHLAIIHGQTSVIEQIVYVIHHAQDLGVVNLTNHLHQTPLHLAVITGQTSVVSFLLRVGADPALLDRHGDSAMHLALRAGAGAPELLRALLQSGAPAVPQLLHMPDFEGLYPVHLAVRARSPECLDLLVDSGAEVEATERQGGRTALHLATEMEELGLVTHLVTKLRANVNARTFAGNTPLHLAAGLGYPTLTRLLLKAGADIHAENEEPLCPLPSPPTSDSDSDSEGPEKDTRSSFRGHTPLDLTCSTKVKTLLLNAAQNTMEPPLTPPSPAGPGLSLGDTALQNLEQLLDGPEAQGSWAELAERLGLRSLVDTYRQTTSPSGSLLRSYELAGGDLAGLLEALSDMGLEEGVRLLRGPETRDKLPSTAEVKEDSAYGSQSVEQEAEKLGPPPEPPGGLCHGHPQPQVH
# Nuclear factor NF-kappa-B complex (Homo sapiens), sequence (Q04206 whole entry, looked up): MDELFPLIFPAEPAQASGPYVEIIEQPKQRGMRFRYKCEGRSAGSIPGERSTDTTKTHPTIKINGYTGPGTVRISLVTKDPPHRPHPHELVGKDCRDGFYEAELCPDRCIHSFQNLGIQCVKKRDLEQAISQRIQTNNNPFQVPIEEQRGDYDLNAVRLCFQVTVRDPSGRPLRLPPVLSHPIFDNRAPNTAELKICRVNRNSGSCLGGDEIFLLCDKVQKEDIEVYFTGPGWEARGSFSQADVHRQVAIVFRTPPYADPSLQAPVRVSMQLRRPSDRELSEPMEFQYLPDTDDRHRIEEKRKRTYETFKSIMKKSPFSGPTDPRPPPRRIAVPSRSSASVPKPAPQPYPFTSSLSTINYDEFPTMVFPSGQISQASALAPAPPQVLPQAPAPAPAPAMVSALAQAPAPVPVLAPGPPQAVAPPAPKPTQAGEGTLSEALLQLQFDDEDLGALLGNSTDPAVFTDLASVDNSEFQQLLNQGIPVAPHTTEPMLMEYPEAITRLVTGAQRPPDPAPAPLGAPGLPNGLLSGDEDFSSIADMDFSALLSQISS
# HCT-116 [2] = assay: Induction of apoptosis in human HCT-116 cells assessed as viable cells at 10 uM incubated for 24 hrs by Annexin V-FITC/PI staining based flow cytometric analysis (reference value: 88.8%); format: functional; details: read-out: Activity
# HT-29 [3] = assay: Induction of apoptosis in human HT-29 cells assessed as necrotic cells at 5 uM incubated for 24 hrs by Annexin V-FITC/PI staining based flow cytometric analysis (reference value: 0.37 %); format: functional
# HCT-116 [4] = assay: Induction of apoptosis in human HCT-116 cells assessed as late apoptotic cells at 5 uM preincubated with Z-VAD-FMK for 1 hr followed by compound addition and measured after 24 hrs by Annexin V-FITC/PI staining based flow cytometric analysis (reference value: 9.37 %); format: functional
# HCT-116 [5] = assay: Induction of cell cycle arrest in human HCT-116 cells assessed as decrease in CDK4 protein expression upto 10 uM incubated for 24 hrs by Western blot analysis; format: functional, cell-based
# HT-29 [6] = assay: Induction of apoptosis in human HT-29 cells assessed as early apoptotic cells at 0.5 uM incubated for 24 hrs by Annexin V-FITC/PI staining based flow cytometric analysis (reference value: 5.29 %); format: functional
# HCT-116 [7] = assay: Induction of apoptosis in human HCT-116 cells assessed as early apoptotic cells at 1 uM incubated for 24 hrs by Annexin V-FITC/PI staining based flow cytometric analysis (reference value: 7.22 %); format: functional
# HCT-116 [8] = assay: Induction of apoptosis in human HCT-116 cells assessed as increase in cleavage of PARP measured for 24 hrs by Western blot analysis; format: functional, cell-based; details: dose 0-10 µM
# Mus musculus [9] = assay: In vivo inhibition of NFkappaB activation in LPS-induced BALB/c mouse model of endotoxin shock assessed as inhibition of TNF-alpha mRNA expression in liver at 5 mg/kg, ip pretreated for 4 hrs followed by LPS stimulation for 1 hr by RT-PCR analysis; format: functional, organism-based; details: time 5.0 hrs
# HT-29 [10] = assay: Induction of apoptosis in human HT-29 cells assessed as inhibition of caspase 8 protein expression measured for 24 hrs by Western blot analysis; format: functional, cell-based; details: dose 0-10 µM
# [11] = Toxicity in athymic nude BALB/c mouse xenografted with human HCT-116 cells assessed as pathological changes in lungs at 5 to 15 mg/kg, ip administered every other day and measured after 14 days by hematoxylin and eosin staining-based microscopic analysis; format: organism-based; details: in vivo, 336 h, dose 5-15 mg/kg, time 14 day
# [12] = Toxicity in athymic nude BALB/c mouse xenografted with human HT-29 cells assessed as reduction in body weight at 5 to 15 mg/kg, ip administered every other day and measured every other day for 16 days; format: organism-based; details: in vivo, 384 h, dose 5-15 mg/kg, time 16 day
# HCT-116 [13] = assay: Induction of apoptosis in human HCT-116 cells assessed as necrotic cells at 10 uM incubated for 24 hrs by Annexin V-FITC/PI staining based flow cytometric analysis (reference value: 1.1 %); format: functional
# HT-29 [14] = assay: Antitumor activity against human HT-29 cells xenografted in athymic nude BALB/c mouse assessed as reduction in tumor weight at 5 to 15 mg/kg, ip administered every other day and measured every other day for 16 days; format: functional, organism-based; details: dose 5-15 mg/kg, time 16.0 day
# RAW264.7 = assay: Inhibition of LPS-induced NFkappaB activation in mouse RAW264.7 cells assessed as inhibition of IkappaBalpha phosphorylation preincubated for 24 hrs followed by LPS stimulation for 3 hrs by Western blot analysis; format: cell-based; details: dose 1-10 µM, time 27.0 hrs
# HCT-116 [15] = assay: Induction of apoptosis in human HCT-116 cells assessed as late apoptotic cells at 10 uM incubated for 24 hrs by Annexin V-FITC/PI staining based flow cytometric analysis (reference value: 2.9 %); format: functional
# HCT-116 [16] = assay: Induction of cell cycle arrest in human HCT-116 cells assessed as decrease in cyclin B protein expression upto 10 uM incubated for 24 hrs by Western blot analysis; format: functional, cell-based
# HCT-116 [17] = assay: Antitumor activity against human HCT-116 cells xenografted in athymic nude BALB/c mouse assessed as induction of apoptosis by measuring increase in cleaved PARP expression in tumor at 15 mg/kg, ip administered every other day and measured after 14 days by immunohistochemistry analysis; format: functional, organism-based; details: time 14.0 day
# [18] = Toxicity in athymic nude BALB/c mouse assessed as change in serum AKP level at 5 to 15 mg/kg, ip administered every other day and measured after 14 days; format: organism-based; details: in vivo, 336 h, dose 5-15 mg/kg, time 14 day
# HT-29 [19] = assay: Induction of apoptosis in human HT-29 cells assessed as inhibition of caspase 3 protein expression measured for 24 hrs by Western blot analysis; format: functional, cell-based; details: dose 0-10 µM
# HCT-116 [20] = assay: Induction of apoptosis in human HCT-116 cells assessed as necrotic cells at 5 uM incubated for 24 hrs by Annexin V-FITC/PI staining based flow cytometric analysis (reference value: 0.69 %); format: functional
# HCT-116 [21] = assay: Induction of autophagy in human HCT-116 cells transfected with GFP-LC3 assessed as increase in LC3 dot puncta at 1 to 10 uM incubated for 24 hrs by fluorescence microscopy; format: functional, cell-based; details: dose 1-10 µM
# HT-29 [22] = assay: Induction of apoptosis in human HT-29 cells assessed as early apoptotic cells at 10 uM incubated for 24 hrs by Annexin V-FITC/PI staining based flow cytometric analysis (reference value: 5.29 %); format: functional
# Mus musculus [23] = assay: Anti-inflammatory activity in AOM/DSS-induced BALB/c mouse model inflammatory bowel disease assessed as reduction in hyperplasia at 10 mg/kg, ip pretreated with AOM for 7 days further replaced with DSS for 7 days and repeated for 2 times followed by every 2 days compound treatment for […] starting from day 50 by H and E staining based analysis; format: functional, organism-based; details: time 21.0 day
# Mus musculus [24] = assay: In vivo inhibition of NFkappaB activation in athymic BALB/c mouse xenografted with human HT-29 cells assessed as reduction in A20 gene expression in tumor at 5 to 15 mg/kg, ip administered every other day and measured after 14 days by qRT-PCR analysis; format: functional, organism-based; details: dose 5-15 mg/kg, time 14.0 day
# HT-29 [25] = assay: Inhibition of colony formation in human HT-29 cells at 0.25 to 10 uM incubated for 24 hrs and measured after 14 days by crystal violet staining based assay; format: functional, cell-based; details: dose 0.25-10 µM, time 14.0 day
# HT-29 [26] = assay: Induction of cell death in human HT-29 cells at 0.5 to 10 uM pretreated with Z-VAD-FMK for 1 hr followed by compound addition and measured after 24 hrs by SRB assay; format: functional, cell-based; details: dose 0.5-10 µM
# HCT-116 [27] = assay: Induction of cell cycle arrest in human HCT-116 cells assessed as accumulation of cells at G2/M phase at 1 uM by RNase/PI staining based flow cytometry analysis (reference value: 23.15 %); format: functional
# HCT-116 [28] = assay: Induction of apoptosis in human HCT-116 cells assessed as necrotic cells at 0.25 uM incubated for 24 hrs by Annexin V-FITC/PI staining based flow cytometric analysis (reference value: 1.1 %); format: functional
structure (smiles),measurement,setting,value
C[C@@H]1CC[C@H]2[C@H](C(=O)c3c(O)c([C@@]4(O)CC[C@@H](O)[C@H]5O[C@H]54)cn(O)c3=O)[C@H](C)C=C[C@@H]2C1,inhibition,[1],Active
same,viability at 10 µM,HCT-116 [2],11.1%
same,Activity,HT-29 [3],0.29%
same,Activity,HCT-116 [4],53.3%
same,Activity,HCT-116 [5],Active
same,Activity,HT-29 [6],37.6%
same,Activity,HCT-116 [7],18.6%
same,Activity,HCT-116 [8],Dose-Dependent Effect
same,inhibition,Mus musculus [9],Active
same,Activity,HT-29 [10],Dose-Dependent Effect
same,Activity,[11],Non-Toxic
same,Activity,[12],Non-Toxic
same,Activity,HCT-116 [13],1.56%
same,Activity,HT-29 [14],Active
same,inhibition,RAW264.7,Dose-Dependent Effect
same,Activity,HCT-116 [15],75%
same,Activity,HCT-116 [16],Active
same,Activity,HCT-116 [17],Active
same,Activity,[18],Non-Toxic
same,Activity,HT-29 [19],Dose-Dependent Effect
same,Activity,HCT-116 [20],0.52%
same,Activity,HCT-116 [21],Active
same,Activity,HT-29 [22],46.2%
same,Activity,Mus musculus [23],Active
same,inhibition,Mus musculus [24],Active
same,inhibition,HT-29 [25],Active
same,inhibition,HT-29 [26],inactive
same,Activity,HCT-116 [27],20.12%
same,Activity,HCT-116 [28],3.14%
